The values below come from PubChem BioAssay (NCI).

Assay in all cases: DTP human tumour cell line panel, 48 h
In assay [1] the test system is A498 renal.
For assay [2], the system named is A549 NSCLC.
For assay [3], the system named is ACHN renal.
Assay [4] deals with BT-549 breast.
Assay [5] has as its system CAKI-1 renal.
Assay [6] relates to DU-145 prostate.
Assay [7] relates to EKVX NSCLC.
Assay [8] relates to HCT-15 colon.
Assay [9] has as its system HS 578T breast.
In assay [10] the test system is HT29 colon.
In assay [11] the test system is MDA-MB-231 breast.
The subject of assay [12] is NCI-H522 lung.
Assay [13] has as its system OVCAR-5 ovarian.
Assay [14] relates to PC-3 prostate.
The subject of assay [15] is SF-295 CNS.
The test system of assay [16] is SK-MEL-28 melanoma.
The test system of assay [17] is U251 CNS.
Assay [18] concerns UACC-257 melanoma.
Assay [19] concerns SK-OV-3 ovarian.
Assay [20] has as its system SR leukemia.

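Exposure lasted 48 hours, with cells grown in 96-well plates and compounds tested at five concentrations. TGI denotes the concentration required for complete inhibition of growth.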 Bounds are passed on as bounds.

As a reminder, the TGI is the concentration at which net growth stops. In the case of `C[C@@H](C(=O)O)N1C(c2ccco2)=C(/C(C=O)=C\c2ccco2)C(=O)/C1=C\c1ccco1`, the concentration for total growth inhibition (TGI) in assay [1], in assay [2], in assay [3], in assay [4], in assay [5] and in [6] was more than 100 µM each time. For the same molecule, the concentration for total growth inhibition (TGI) in assay [7], in assay [8], in [9], in assay [10], in assay [11] and in assay [12] was more than 100 µM each time. Also, the TGI in [13], in assay [14], in assay [15], in assay [16], in assay [17] and in [18] was more than 100 µM in each case.

Take `O=C1CS(=O)(=O)C(c2cccc(Oc3ccccc3)c2)N1c1ccc(Cl)cc1` (stereo not drawn): the TGI in [2] is more than 100 µM; in assay [3], 60.5 µM; in assay [4], 90.1 µM; in assay [5], 64.8 µM; in [6] it was more than 100 µM; in assay [7], 51.3 µM. The total growth inhibition concentration (TGI) in assay [8] is more than 100 µM; in assay [9] it was more than 100 µM; in [10], more than 100 µM; in assay [11], more than 100 µM; in [12] it was 68.9 µM; in [13], more than 100 µM. For the same molecule, the total growth inhibition concentration (TGI) is 84.5 µM in assay [14]; more than 100 µM in [15]; more than 100 µM in assay [16]; more than 100 µM in assay [19]; 45.4 µM in assay [20]; 56.1 µM in assay [17]. The molecule further gave a TGI in assay [18] of 44.3 µM.

Consider `CCCCC1(NN=C2CCCCC2)C(=O)N(c2ccccc2)N(c2ccccc2)C1=O`, for which the TGI in assay [2], in assay [3], in [4], in assay [5], in [6] and in assay [7] was more than 100 µM throughout. In addition, the TGI in assay [8], in assay [9], in assay [10], in assay [11], in [12] and in assay [14] was more than 100 µM throughout. The TGI in [15] is more than 100 µM; in assay [16], more than 100 µM; in [19], more than 100 µM; in [20] it was 32.2 µM; in assay [17], more than 100 µM; in [18], more than 100 µM.

Turning to `OC(CNc1ccccn1)c1ccccc1` (stereo not drawn), the total growth inhibition concentration (TGI) in assay [1], in assay [2], in assay [3], in [4], in [5] and in assay [6] was more than 100 µM in each case. Also, the TGI in [7], in assay [8], in [9], in assay [10], in assay [11] and in assay [12] was more than 100 µM in each case. The TGI in assay [13], in [14], in assay [15], in assay [16], in assay [19] and in assay [17] was more than 100 µM each time. Besides, in assay [18], the TGI was more than 100 µM.

Turning to `COc1ccc(/C=C2\N=C(N3CCCCC3)NC2=O)cc1`, the concentration for total growth inhibition (TGI) in [2], in assay [3], in assay [4], in assay [5], in assay [6] and in assay [7] was more than 100 µM each time. The total growth inhibition concentration (TGI) in [8], in assay [9], in assay [10], in assay [11], in assay [12] and in assay [13] was more than 100 µM each time. Also, the concentration for total growth inhibition (TGI) in assay [14], in assay [15], in assay [16], in [19], in assay [20] and in assay [17] was more than 100 µM throughout. Also, the total growth inhibition concentration (TGI) in [18] was more than 100 µM.

With `O=C1/C(=C\c2ccc([N+](=O)[O-])cc2)N(S(=O)(=O)c2ccccc2)c2ncccc21`, the TGI in [2] is more than 100 µM; in [3] it was 31.4 µM; in assay [4] it was 32.7 µM; in [5], 20.9 µM; in assay [6] it was 75.4 µM; in assay [8] it was 32.3 µM. Also, the TGI was determined as 81.3 µM in assay [9]; 35 µM in assay [10]; 38.4 µM in assay [11]; 54.4 µM in [12]; 33.4 µM in assay [14]; 75.4 µM in assay [15]. Further, the TGI in assay [16] was found to be 41.8 µM; in [19], 19.8 µM; in assay [20], 20.8 µM; in assay [17] it was 34.2 µM; in [18] it was 42.8 µM.

As to `NC(N)=NS(=O)(=O)c1ccc(NNc2c3ccccc3nc3ccccc23)cc1`, the TGI in [2] is 45.4 µM; in [3] it was 23.1 µM; in assay [4], 28.5 µM; in [5], 55.1 µM; in assay [6], 21.3 µM; in [7], 34.3 µM. The TGI in assay [8] is more than 100 µM; in [9], 93.6 µM; in assay [10], 27.2 µM; in [11] it was 37 µM; in [12], 17.5 µM; in assay [13], 48.2 µM. Further, the TGI in assay [14] was found to be 25.3 µM; in assay [15] it was 73 µM; in assay [16], 29.2 µM; in assay [19], 40.3 µM; in [20], 13.7 µM; in assay [17] it was 24.2 µM. Further, the TGI in assay [18] turned out to be 46.1 µM.

On to `Clc1ccc(CCN(CCc2ccc(Cl)c(Cl)c2)CCN2CCCC2)cc1Cl`, for which the TGI amounted to 3.23 µM in assay [1]; 3.15 µM in assay [2]; 3.2 µM in assay [3]; 3.65 µM in assay [4]; 3.02 µM in assay [5]; 4.3 µM in [6]. For the same molecule, the concentration for total growth inhibition (TGI) in assay [7] worked out at 4.4 µM; in assay [8] it was 3.28 µM; in [9] it was 4.47 µM; in assay [10] it was 3.41 µM; in assay [11] it was 2.91 µM; in [12] it was 3.2 µM. Further, the concentration for total growth inhibition (TGI) in [13] is 3.23 µM; in [14] it was 2.91 µM; in assay [15] it was 3.3 µM; in assay [19], 3.49 µM; in [17], 2.95 µM; in [18] it was 3.37 µM.

As for `Cc1ccc(-n2[nH]nc(C(N)=O)c2=O)cc1`, the total growth inhibition concentration (TGI) in [2], in assay [3], in assay [4], in assay [5], in assay [6] and in assay [7] was more than 100 µM throughout. Besides, the TGI in [8], in [9], in assay [10], in assay [11], in assay [12] and in assay [13] was more than 100 µM throughout. Besides, the TGI in assay [14], in assay [15], in assay [16], in assay [19], in assay [17] and in assay [18] was more than 100 µM each time.

As for `C=CCCON(C(=O)OC(C)(C)C)c1ccccc1`, the total growth inhibition concentration (TGI) in assay [1], in assay [2], in assay [3], in assay [4], in [5] and in assay [6] was more than 100 µM in each case. Moreover, the total growth inhibition concentration (TGI) in [7], in assay [8], in assay [9], in [10], in assay [11] and in assay [12] was more than 100 µM each time. Besides, the TGI in [13], in assay [14], in [15], in assay [16], in assay [19] and in [17] was more than 100 µM each time. For the same molecule, in assay [18], the TGI is more than 100 µM.

Consider `COc1ccc2c(c1)CN1C(=N2)CSC1c1cccc(Br)c1` (stereo not drawn), for which the concentration for total growth inhibition (TGI) in [2], in assay [3], in assay [4], in [5], in [7] and in assay [8] was more than 100 µM throughout. Besides, the TGI in assay [9] was more than 100 µM; in assay [10], 72.3 µM; in assay [11], more than 100 µM; in assay [12] it was more than 100 µM; in assay [13], more than 100 µM; in [14], more than 100 µM. The total growth inhibition concentration (TGI) in assay [15], in assay [16], in assay [19], in assay [20], in [17] and in assay [18] was more than 100 µM each time.

In the case of `C#CCn1c(=O)c(I)cn(/C(=C/C(=O)OCC)C(=O)OCC)c1=O`, the TGI in [1] was determined as 33.7 µM; in assay [2], 36 µM; in assay [3], 3.27 µM; in assay [4], 26.2 µM; in assay [5], 3.38 µM; in [6], 23.9 µM. Besides, the TGI in assay [7] is 10.2 µM; in assay [8] it was 8.03 µM; in assay [9] it was more than 100 µM; in [10] it was 36.9 µM; in [11], 29.5 µM; in [12], 2.37 µM. For the same molecule, the total growth inhibition concentration (TGI) in assay [13] is 31.1 µM; in assay [14], 11 µM; in assay [15] it was more than 59.2 µM; in assay [16], 26.2 µM; in [19] it was 31.8 µM; in assay [17], 32.1 µM. The molecule further displayed a TGI in [18] of 8.11 µM.

On to `COc1ccc(Cn2c(=O)c(OC)c(C)c3cc4ccccc4cc32)cc1`, for which the TGI was more than 100 µM in assay [2]; more than 100 µM in assay [3]; more than 100 µM in [4]; more than 100 µM in assay [5]; more than 100 µM in assay [6]; 60.3 µM in [7]. Also, the total growth inhibition concentration (TGI) in [8] was more than 100 µM; in assay [9], more than 100 µM; in assay [10] it was more than 100 µM; in assay [11], more than 100 µM; in assay [12] it was 59.6 µM; in [13] it was more than 100 µM. Further, the total growth inhibition concentration (TGI) in assay [14] was 49.2 µM; in assay [15], more than 100 µM; in assay [16] it was more than 100 µM; in assay [19], more than 100 µM; in [20], 57.5 µM; in [17], 80.6 µM. Moreover, the TGI in assay [18] was 9.02 µM.

With `O=c1oc2ccccc2c(Nc2ccc3c(c2)Sc2ccccc2O3)c1[N+](=O)[O-]`, the TGI is more than 100 µM in assay [2]; 44.7 µM in [3]; 85.4 µM in [4]; more than 100 µM in assay [5]; more than 100 µM in assay [6]; 90.6 µM in assay [7]. For the same molecule, the TGI in assay [8] is more than 100 µM; in [9], more than 100 µM; in assay [10], 65.9 µM; in assay [11], 47.9 µM; in [12], 48 µM; in [13], more than 100 µM. Also, the TGI was 38.9 µM in assay [14]; 60.6 µM in assay [15]; 73.3 µM in assay [16]; more than 100 µM in assay [19]; 57.3 µM in [20]; 41.7 µM in [17]. The molecule also yielded a total growth inhibition concentration (TGI) in assay [18] of 55.7 µM.

Turning to `COc1cc2c(cc1OCCCCCCCCCCN1C(=O)c3cccc4cccc(c34)C1=O)N=C[C@@H]1CCCN1C2=O`, the concentration for total growth inhibition (TGI) in assay [2] amounted to 82.4 µM; in [3], 30 µM; in [4] it was 20.9 µM; in [5], 28.9 µM; in [6] it was 34.4 µM; in [7] it was 14.4 µM. Besides, the TGI in [8] came out at 16.9 µM; in [9], 75.3 µM; in [10], 29.3 µM; in assay [11] it was 20.4 µM; in assay [12], 28.9 µM; in assay [13] it was 61.2 µM. For the same molecule, the TGI in assay [14] was found to be 12.3 µM; in [15], 27.4 µM; in assay [16] it was 33 µM; in assay [19], 19.8 µM; in [20], 3.84 µM; in [17], 13.4 µM. Further, the concentration for total growth inhibition (TGI) in assay [18] stood at 37.3 µM.
